Read-outs that look alike come from different tables or passages of the source.

Consider 21 compounds from US8846947B2, “Benzimidazoles and related analogs as sirtuin modulators” (GlaxoSmithKline LLC, priority 2008, dated 2014).

The test deals with T1, SIRT1 (Homo sapiens, UniProt Q96EB6).
T1 sequence (Q96EB6 1-747): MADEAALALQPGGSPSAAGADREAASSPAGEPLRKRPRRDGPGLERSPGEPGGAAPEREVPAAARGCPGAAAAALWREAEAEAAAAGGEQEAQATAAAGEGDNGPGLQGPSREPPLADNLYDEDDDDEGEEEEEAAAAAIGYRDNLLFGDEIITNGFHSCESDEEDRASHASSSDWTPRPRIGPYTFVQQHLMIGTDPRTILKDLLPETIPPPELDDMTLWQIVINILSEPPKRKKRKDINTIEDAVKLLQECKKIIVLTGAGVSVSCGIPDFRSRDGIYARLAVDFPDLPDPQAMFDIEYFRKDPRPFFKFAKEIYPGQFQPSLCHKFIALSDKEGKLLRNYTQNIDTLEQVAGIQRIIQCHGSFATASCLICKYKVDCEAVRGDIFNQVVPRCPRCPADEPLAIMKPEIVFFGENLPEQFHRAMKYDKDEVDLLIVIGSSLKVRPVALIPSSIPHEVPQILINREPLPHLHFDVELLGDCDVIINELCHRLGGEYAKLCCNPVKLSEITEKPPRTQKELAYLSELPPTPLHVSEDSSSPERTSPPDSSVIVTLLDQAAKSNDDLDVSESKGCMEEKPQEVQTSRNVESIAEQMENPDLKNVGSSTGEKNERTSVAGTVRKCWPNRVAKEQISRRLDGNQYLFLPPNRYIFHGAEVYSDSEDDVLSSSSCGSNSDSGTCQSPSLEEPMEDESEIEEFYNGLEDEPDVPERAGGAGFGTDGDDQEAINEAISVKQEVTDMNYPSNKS
In words: Mass spectrometry based SIRT1 deacetylase activation assay (acetylated p53-derived peptide substrate). The format is biochemical.

Where [1] appears, read: 0.5 μM peptide substrate, 120 μM βNAD+, 10 nM SIRT1, 25 minutes at 25° C.
Where [2] appears, read: 0.5 μM peptide substrate, 120 μM βNAD+, 10 nM SIRT1, 25 min at 25° C.
The mark [3] stands for this setting: 0.5 μM peptide substrate, 120 μM βNAD+, 10 nM SIRT1, 25 min at 25° C., read-out: EC1.5.

Take `Cc1cnc(NC(=O)c2cncc3[nH]c(-c4ccc(N5CCCC5)cc4C(F)F)nc23)s1` [Compound 800]: under setting [1], the EC1.5 entry is “A (EC1.5<1.0 uM)” and the “Fold Act. (percent maximum fold activation)” value is recorded as “A (Fold activation >200%)”.
As to `O=C(Nc1ccccn1)c1cc(N2CCOCC2)cc2[nH]c(-c3ccc(F)cc3C(F)(F)F)nc12` [Compound 690], under setting [1], the EC1.5 result is recorded as “A (EC1.5<1.0 uM)” and the “Fold Act. (percent maximum fold activation)” value is reported as “A (Fold activation >200%)”.
For the compound `CC(C)N1CCN(c2cccc(-c3nc4c(C(=O)Nc5ccccn5)cccc4[nH]3)c2)CC1` [Compound 530], the “Fold Act. (percent maximum fold activation)” value under setting [2] was “A (Fold activation >200%)”. Further, under setting [3], the EC1.5 was less than 1000 nM.
In the same order, the values of `O=C(Nc1cccnn1)c1cccc2[nH]c(-c3ccc(N4CCOCC4)cc3C(F)F)nc12` [Compound 555] are “A (Fold activation >200%)” and less than 1000 nM.
With `Cc1cnc(NC(=O)c2cccc3nc(-c4ccc(N5CCCC5)cc4C(F)F)[nH]c23)s1` [Compound 765], under setting [1], the EC1.5 entry is “A (EC1.5<1.0 uM)” and the “Fold Act. (percent maximum fold activation)” value is given as “A (Fold activation >200%)”.
As for `Cc1cc(NC(=O)c2cccc3[nH]c(-c4ccc(F)cc4C(F)(F)F)nc23)n(C)n1` [Compound 375], the EC1.5 result is recorded as “A (EC1.5<1.0 uM)” and the “Fold Act. (percent maximum fold activation)” value is listed as “A (Fold activation >200%)”.
`C[C@@H]1CN(c2ccc(C(F)(F)F)c(-c3nc4c(C(=O)Nc5ccccn5)cccc4[nH]3)c2)C[C@H](C)O1` [Compound 663]: under setting [1], the EC1.5 result is listed as “C (EC1.5 >25 uM)” and the “Fold Act. (percent maximum fold activation)” value was “B (Fold Activation <200%)”.
On the same counts, the results for `O=C(Nc1cccc(CN2CCOCC2)n1)c1cccc2[nH]c(-c3ccc(Cl)cc3C(F)F)nc12` [Compound 819] are “A (EC1.5<1.0 uM)” and “A (Fold activation >200%)”.
With `O=C(Nc1nccs1)c1cncc2[nH]c(-c3ccc(N4CCOCC4)cc3C(F)F)nc12` [Compound 804], under setting [1], the EC1.5 entry is recorded as “A (EC1.5<1.0 uM)” and the “Fold Act. (percent maximum fold activation)” value is recorded as “A (Fold activation >200%)”.
As for `O=C(Nc1cccc2[nH]c(-c3ccc(Cl)cc3C(F)(F)F)nc12)c1cscn1` [Compound 416], the “Fold Act. (percent maximum fold activation)” value under setting [2] is reported as “B (Fold Activation <200%)”. Further, the EC1.5 under setting [3] was 1000 to 25000 nM.
For the compound `Cc1nc(NC(=O)c2cccc3[nH]c(-c4ccc(Cl)cc4C(F)(F)F)nc23)sc1C` [Compound 393], the EC1.5 entry is recorded as “A (EC1.5<1.0 uM)” and the “Fold Act. (percent maximum fold activation)” value was “A (Fold activation >200%)”.
Turning to `O=C(NC1CCOCC1)c1cccc2[nH]c(-c3ccccc3C(F)(F)F)nc12` [Compound 421], the “Fold Act. (percent maximum fold activation)” value under setting [2] was “B (Fold Activation <200%)”. Moreover, under setting [3], the EC1.5 was more than 25000 nM.
`O=C(Nc1cccnc1)c1cc(N2CCCC2)cc2[nH]c(-c3ccccc3C(F)F)nc12` [Compound 792]: under setting [1], the EC1.5 entry is “A (EC1.5<1.0 uM)” and the “Fold Act. (percent maximum fold activation)” value is recorded as “A (Fold activation >200%)”.
Take `C[C@@H]1CN(c2ccc(-c3nc4c(C(=O)Nc5ccccn5)cccc4[nH]3)c(C(F)(F)F)c2)C[C@H](C)O1` [Compound 571]: under setting [2], the “Fold Act. (percent maximum fold activation)” value was “A (Fold activation >200%)”. For the same compound, the EC1.5 under setting [3] was less than 1000 nM.
`O=C(Nc1cccc2[nH]c(-c3ccc(Cl)cc3C(F)(F)F)nc12)c1ccccn1` [Compound 417]: the “Fold Act. (percent maximum fold activation)” value under setting [2] is “A (Fold activation >200%)”. In addition, the EC1.5 under setting [3] fell in the range of 1000 to 25000 nM.
For `O=C(Nc1ccccn1)c1cccc2[nH]c(-c3cccc4c3OC(F)(F)O4)nc12` [Compound 496], the “Fold Act. (percent maximum fold activation)” value under setting [2] is “A (Fold activation >200%)”. Also, the EC1.5 under setting [3] was less than 1000 nM.
Consider `O=C(Nc1ccc(CN2CCNCC2)nc1)c1cccc2[nH]c(-c3ccccc3C(F)(F)F)nc12` [Compound 728], for which, under setting [1], the EC1.5 result is on record as “A (EC1.5<1.0 uM)” and the “Fold Act. (percent maximum fold activation)” value was “A (Fold activation >200%)”.
For the compound `Cc1nc(NC(=O)c2cccc3[nH]c(-c4ccccc4OCCN4CCOCC4)nc23)sc1C` [Compound 476], the “Fold Act. (percent maximum fold activation)” value under setting [2] is reported as “A (Fold activation >200%)”. The EC1.5 under setting [3] was 1000 to 25000 nM.
Turning to `O=C(Nc1nccs1)c1cccc2[nH]c(-c3cn4ccsc4n3)nc12` [Compound 400], under setting [2], the “Fold Act. (percent maximum fold activation)” value is “A (Fold activation >200%)”. Further, the EC1.5 under setting [3] was less than 1000 nM.
As to `O=C(Nc1nccs1)c1cccc2[nH]c(-c3cc(F)cc(Cl)c3)nc12` [Compound 220], the EC1.5 result was “B (EC1.5 1-25 uM)” and the “Fold Act. (percent maximum fold activation)” value is “A (Fold activation >200%)”.
In the case of `CC(C)(C)NCCOc1ccccc1-c1nc2c(C(=O)Nc3nccs3)cccc2[nH]1` [Compound 580], the “Fold Act. (percent maximum fold activation)” value under setting [2] is on record as “A (Fold activation >200%)”. In addition, under setting [3], the EC1.5 lay in the range of 1000 to 25000 nM.
